What was measured:
Assay type in all cases: in vivo
[1] = test system: barnyardgrass (Echinochloa crus-galli); assay: Test G Pre-Emergence Protocol; settings: Echinochloa crus-galli, pre-emergence, 312 h, evaluated after 13 days; for pest or weed control at 15.625 g/ha: 15.625 g ai/ha, read-out: Barnyard grass damage rating (100=total damage to plant; 0=no damage to plant); for pest or weed control at 62.5 g/ha: 62.5 g ai/ha, 100=total damage to plant, 0=no damage to plant, read-out: plant damage rating, Barnyardgrass; for pest or weed control at 250 g/ha: 250 g ai/ha, read-out: Barnyardgrass damage rating (100=total damage to plant; 0=no damage to plant)
Summary of the method: (§1)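 Glasshouse pre-emergence test: soil-sown seeds, sprayed after 1 d at 15.625, 62.5 or 250 g/ha. Conditions 24/16° C day/night, 14 h light, 65% humidity, watering twice daily. Rating 13 d post-spray (100 = total damage).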

corn (Zea mays) [2] = assay: Test G Pre-Emergence Protocol; settings: Zea mays, pre-emergence, 312 h, evaluated after 13 days; for plant injury at 15.625 g/ha: 15.625 g ai/ha; for plant injury at 15.625 g/ha / plant injury at 250 g/ha: read-out: Corn damage rating (100=total damage to plant; 0=no damage to plant); for plant injury at 62.5 g/ha: 62.5 g ai/ha, 100=total damage to plant, 0=no damage to plant, read-out: plant damage rating, Corn; for plant injury at 250 g/ha: 250 g ai/ha
Summary of the method: as §1

[3] = test system: giant foxtail (Setaria faberi); assay: Test G Pre-Emergence Protocol; settings: Setaria faberi, pre-emergence, 312 h, evaluated after 13 days; for pest or weed control at 15.625 g/ha: 15.625 g ai/ha; for pest or weed control at 15.625 g/ha / pest or weed control at 250 g/ha: read-out: Foxtail, Giant damage rating (100=total damage to plant; 0=no damage to plant); for pest or weed control at 62.5 g/ha: 62.5 g ai/ha, 100=total damage to plant, 0=no damage to plant, read-out: plant damage rating, Foxtail, Giant; for pest or weed control at 250 g/ha: 250 g ai/ha
Summary of the method: as §1

[4] = test system: ivy-leaved morning glory (Ipomoea hederacea); assay: Test G Pre-Emergence Protocol; settings: Ipomoea, pre-emergence, 312 h, evaluated after 13 days; for pest or weed control at 15.625 g/ha: 15.625 g ai/ha, read-out: Morning-glory, Ivy-leaved damage rating (100=total damage to plant; 0=no damage to plant); for pest or weed control at 62.5 g/ha: 62.5 g ai/ha, 100=total damage to plant, 0=no damage to plant, read-out: plant damage rating, Morningglory, Ivy-leaved; for pest or weed control at 250 g/ha: 250 g ai/ha, read-out: Morningglory, Ivy-leaved damage rating (100=total damage to plant; 0=no damage to plant)
Summary of the method: as §1

[5] = test system: redroot pigweed (Amaranthus retroflexus); assay: Test G Pre-Emergence Protocol; settings: Amaranthus retroflexus, pre-emergence, 312 h, evaluated after 13 days; for pest or weed control at 15.625 g/ha: 15.625 g ai/ha; for pest or weed control at 15.625 g/ha / pest or weed control at 250 g/ha: read-out: Pigweed, Redroot damage rating (100=total damage to plant; 0=no damage to plant); for pest or weed control at 62.5 g/ha: 62.5 g ai/ha, 100=total damage to plant, 0=no damage to plant, read-out: plant damage rating, Pigweed, Redroot; for pest or weed control at 250 g/ha: 250 g ai/ha
Summary of the method: as §1

[6] = test system: velvetleaf (Abutilon theophrasti); assay: Test G Pre-Emergence Protocol; settings: Abutilon theophrasti, pre-emergence, 312 h, evaluated after 13 days; for pest or weed control at 15.625 g/ha: 15.625 g ai/ha; for pest or weed control at 15.625 g/ha / pest or weed control at 250 g/ha: read-out: Velvetleaf damage rating (100=total damage to plant; 0=no damage to plant); for pest or weed control at 62.5 g/ha: 62.5 g ai/ha, 100=total damage to plant, 0=no damage to plant, read-out: plant damage rating, Velvetleaf; for pest or weed control at 250 g/ha: 250 g ai/ha
Summary of the method: as §1

[7] = test system: barnyardgrass (Echinochloa crus-galli); assay: Test G Post-Emergence Protocol; settings: Echinochloa crus-galli, post-emergence, 312 h; for pest or weed control at 15.625 g/ha: 15.625 g ai/ha, evaluated after 13 days (100=total damage to plant; 0=no damage to plant), read-out: Barnyardgrass damage rating; for pest or weed control at 62.5 g/ha: 62.5 g ai/ha, read-out: Barnyardgrass damage rating (100=total damage to plant; 0=no damage to plant); for pest or weed control at 62.5 g/ha / pest or weed control at 250 g/ha: evaluated after 13 days; for pest or weed control at 250 g/ha: 250 g ai/ha, read-out: damage to plant, Barnyardgrass (100=total damage to plant; 0=no damage to plant)
Summary of the method: (§2)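 Pot-grown seedlings, 8 days old, raised in a glasshouse at 24/16 °C day/night with 14 h light and 65% humidity, were sprayed post-emergence with test compound in acetone/water (50:50) plus 0.5% Tween 20 at 15.625, 62.5 or 250 g/ha. Damage was scored visually 13 days later on a 0–100 scale (100 = total damage).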

corn (Zea mays) [8] = assay: Test G Post-Emergence Protocol; settings: Zea mays, post-emergence, 312 h; for plant injury at 15.625 g/ha: 15.625 g ai/ha, evaluated after 13 days (100=total damage to plant; 0=no damage to plant), read-out: Corn damage rating; for plant injury at 62.5 g/ha: 62.5 g ai/ha, read-out: Corn damage rating (100=total damage to plant; 0=no damage to plant); for plant injury at 62.5 g/ha / plant injury at 250 g/ha: evaluated after 13 days; for plant injury at 250 g/ha: 250 g ai/ha, read-out: damage to plant, Corn (100=total damage to plant; 0=no damage to plant)
Summary of the method: as §2

[9] = test system: giant foxtail (Setaria faberi); assay: Test G Post-Emergence Protocol; settings: Setaria faberi, post-emergence, 312 h; for pest or weed control at 15.625 g/ha: 15.625 g ai/ha, evaluated after 13 days (100=total damage to plant; 0=no damage to plant), read-out: Foxtail, Giant damage rating; for pest or weed control at 62.5 g/ha: 62.5 g ai/ha, read-out: Foxtail, Giant damage rating (100=total damage to plant; 0=no damage to plant); for pest or weed control at 62.5 g/ha / pest or weed control at 250 g/ha: evaluated after 13 days; for pest or weed control at 250 g/ha: 250 g ai/ha, read-out: damage to plant, Foxtail, Giant (100=total damage to plant; 0=no damage to plant)
Summary of the method: as §2

[10] = test system: ivy-leaved morning glory (Ipomoea hederacea); assay: Test G Post-Emergence Protocol; settings: Ipomoea, post-emergence, 312 h; for pest or weed control at 15.625 g/ha: 15.625 g ai/ha, evaluated after 13 days (100=total damage to plant; 0=no damage to plant), read-out: Morningglory, Ivy-leaved damage rating; for pest or weed control at 62.5 g/ha: 62.5 g ai/ha, read-out: Morningglory, Ivy-leaved damage rating (100=total damage to plant; 0=no damage to plant); for pest or weed control at 62.5 g/ha / pest or weed control at 250 g/ha: evaluated after 13 days; for pest or weed control at 250 g/ha: 250 g ai/ha, read-out: damage to plant, Morningglory, Ivy-leaved (100=total damage to plant; 0=no damage to plant)
Summary of the method: as §2

[11] = test system: redroot pigweed (Amaranthus retroflexus); assay: Test G Post-Emergence Protocol; settings: Amaranthus retroflexus, post-emergence, 312 h; for pest or weed control at 15.625 g/ha: 15.625 g ai/ha, evaluated after 13 days (100=total damage to plant; 0=no damage to plant), read-out: Pigweed, Redroot damage rating; for pest or weed control at 62.5 g/ha: 62.5 g ai/ha, read-out: Pigweed, Redroot damage rating (100=total damage to plant; 0=no damage to plant); for pest or weed control at 62.5 g/ha / pest or weed control at 250 g/ha: evaluated after 13 days; for pest or weed control at 250 g/ha: 250 g ai/ha, read-out: damage to plant, Pigweed, Redroot (100=total damage to plant; 0=no damage to plant)
Summary of the method: as §2

[12] = test system: velvetleaf (Abutilon theophrasti); assay: Test G Post-Emergence Protocol; settings: Abutilon theophrasti, post-emergence, 312 h; for pest or weed control at 15.625 g/ha: 15.625 g ai/ha, evaluated after 13 days (100=total damage to plant; 0=no damage to plant), read-out: Velvetleaf damage rating; for pest or weed control at 62.5 g/ha: 62.5 g ai/ha, read-out: Velvetleaf damage rating (100=total damage to plant; 0=no damage to plant); for pest or weed control at 62.5 g/ha / pest or weed control at 250 g/ha: evaluated after 13 days; for pest or weed control at 250 g/ha: 250 g ai/ha, read-out: damage to plant, Velvetleaf (100=total damage to plant; 0=no damage to plant)
Summary of the method: as §2

| Structure (SMILES) | pest or weed control at 15.625 g/ha [1] | pest or weed control at 62.5 g/ha [1] | pest or weed control at 250 g/ha [1] | plant injury at 15.625 g/ha (corn (Zea mays) [2]) | plant injury at 62.5 g/ha (corn (Zea mays) [2]) | plant injury at 250 g/ha (corn (Zea mays) [2]) | pest or weed control at 15.625 g/ha [3] | pest or weed control at 62.5 g/ha [3] | pest or weed control at 250 g/ha [3] | pest or weed control at 15.625 g/ha [4] | pest or weed control at 62.5 g/ha [4] | pest or weed control at 250 g/ha [4] | pest or weed control at 15.625 g/ha [5] | pest or weed control at 62.5 g/ha [5] | pest or weed control at 250 g/ha [5] | pest or weed control at 15.625 g/ha [6] | pest or weed control at 62.5 g/ha [6] | pest or weed control at 250 g/ha [6] | pest or weed control at 15.625 g/ha [7] | pest or weed control at 62.5 g/ha [7] | further results |
| --- | --- | --- | --- | --- | --- | --- | --- | --- | --- | --- | --- | --- | --- | --- | --- | --- | --- | --- | --- | --- | --- |
| CN1C[C@H](c2ccc(C(F)(F)F)cc2)[C@@H](C(=O)Nc2ccc(F)cc2[N+](=O)[O-])C1=O (racemic) [Compound 1425] | 0% | 40% | 60% | 0% | 0% | 0% | 10% | 80% | 80% | 0% | 0% | 0% | 0% | 0% | 0% | 0% | 0% | 0% | 0% | 20% | pest or weed control at 250 g/ha [7]: 20%; plant injury at 15.625 g/ha (corn (Zea mays) [8]): 10%; plant injury at 62.5 g/ha (corn (Zea mays) [8]): 10%; plant injury at 250 g/ha (corn (Zea mays) [8]): 10%; pest or weed control at 15.625 g/ha [9]: 10%; pest or weed control at 62.5 g/ha [9]: 40%; pest or weed control at 250 g/ha [9]: 50%; pest or weed control at 15.625 g/ha [10]: 0%; pest or weed control at 62.5 g/ha [10]: 0%; pest or weed control at 250 g/ha [10]: 0%; pest or weed control at 15.625 g/ha [11]: 20%; pest or weed control at 62.5 g/ha [11]: 30%; pest or weed control at 250 g/ha [11]: 40%; pest or weed control at 15.625 g/ha [12]: 0%; pest or weed control at 62.5 g/ha [12]: 0%; pest or weed control at 250 g/ha [12]: 0% |
| CN1C[C@H](c2ccc(C(F)(F)F)cc2)[C@@H](C(=O)Nc2ccc(C(F)(F)F)cc2F)C1=O (racemic) [Compound 1426] | 0% | 10% | 20% | 0% | 0% | 0% | 0% | 50% | 70% | 0% | 0% | 0% | 0% | 0% | 0% | 0% | 0% | 0% | 0% | 0% | pest or weed control at 250 g/ha [7]: 20%; plant injury at 15.625 g/ha (corn (Zea mays) [8]): 10%; plant injury at 62.5 g/ha (corn (Zea mays) [8]): 0%; plant injury at 250 g/ha (corn (Zea mays) [8]): 10%; pest or weed control at 15.625 g/ha [9]: 0%; pest or weed control at 62.5 g/ha [9]: 0%; pest or weed control at 250 g/ha [9]: 40%; pest or weed control at 15.625 g/ha [10]: 0%; pest or weed control at 62.5 g/ha [10]: 0%; pest or weed control at 250 g/ha [10]: 0%; pest or weed control at 15.625 g/ha [11]: 0%; pest or weed control at 62.5 g/ha [11]: 10%; pest or weed control at 250 g/ha [11]: 10%; pest or weed control at 15.625 g/ha [12]: 0%; pest or weed control at 62.5 g/ha [12]: 0%; pest or weed control at 250 g/ha [12]: 0% |
| Cc1cccc(NC(=O)[C@H]2C(=O)N(C)C[C@@H]2c2ccc(C(F)(F)F)cc2)n1 (racemic) [Compound 1429] | 0% | 40% | 70% | 0% | 0% | 0% | 0% | 70% | 80% | 0% | 0% | 0% | 0% | 0% | 0% | 0% | 0% | 50% | 0% | 10% | pest or weed control at 250 g/ha [7]: 20%; plant injury at 15.625 g/ha (corn (Zea mays) [8]): 10%; plant injury at 62.5 g/ha (corn (Zea mays) [8]): 0%; plant injury at 250 g/ha (corn (Zea mays) [8]): 10%; pest or weed control at 15.625 g/ha [9]: 0%; pest or weed control at 62.5 g/ha [9]: 30%; pest or weed control at 250 g/ha [9]: 40%; pest or weed control at 15.625 g/ha [10]: 0%; pest or weed control at 62.5 g/ha [10]: 10%; pest or weed control at 250 g/ha [10]: 20%; pest or weed control at 15.625 g/ha [11]: 0%; pest or weed control at 62.5 g/ha [11]: 0%; pest or weed control at 250 g/ha [11]: 80%; pest or weed control at 15.625 g/ha [12]: 0%; pest or weed control at 62.5 g/ha [12]: 0%; pest or weed control at 250 g/ha [12]: 30% |
